Reference: patent US20250091994A1, “RAS/RAF BINDING INHIBITOR COMPOUND” (NATIONAL UNIVERSITY CORPORATION KOBE UNIVERSITY, priority 2021, published 2025)

Assays:
Assay type in all cases: cell-based
[1] = system: small cell lung cancer cells SHP77 (K-RasG12V); assay: Cell growth inhibition, suspension cells SHP77; settings: Homo sapiens, 1 μM, 72 hours, read-out: SHP77 (KRasG12V) % inhibition at 1 μM
Summary of the method: (§1)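 Suspension cells, 2 to 4×10^4 per well, cultured with compound in medium with 0.5% FBS (1% DMSO final) for 72 h at 37° C, 5% CO2. Viable cells counted with Cell Counting Reagent; inhibition calculated relative to controls.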

[2] = system: acute lymphoblastic leukemia cells CCRF-CEM (K-RasG12D); assay: Cell growth inhibition, suspension cells CCRF-CEM; settings: Homo sapiens, 1 μM, 72 hours, read-out: CCRF-CEM (KRasG12D) % inhibition at 1 μM
Summary of the method: as §1

[3] = system: Vemurafenib-resistant malignant melanoma cells HT 144R (BRafV600E); assay: Cell growth inhibition, drug-resistant malignant melanoma HT144R; settings: Homo sapiens, in the presence of 1 μM PLX (Vemurafenib), 72 hours
Experimental: The human malignant melanoma cell lines A375 and HT 144, each having BRafV600E mutation, were cultured in a medium containing 10% FBS at 37° C. in the presence of 5% CO2. At the time point in which the cells became confluent, 1 μM Vemurafenib, a BRaf inhibitor, was added to the medium, and the cells were then cultured in the presence of Vemurafenib for 1 month or more (during which the medium was exchanged every 1 week), so as to acquire Vemurafenib-resistant malignant melanoma cells A375R and HT 144R. The resulting resistant cells were suspended in a medium containing 10% FBS, and then seeded on a 96-well plate to an amount of 1 to 2×10^4 cells/well. The cells were cultured at 37° C. in the presence of 5% CO2 overnight. Thereafter, the medium was exchanged with a medium containing 0.5% FBS, to which each compound solution (final DMSO concentration: 1%) and 1 μM Vemurafenib had been added, and the cells were then cultured at 37° C. in the presence of 5% CO2 for 72 hours.
Thereafter, the number of viable cells was measured using Cell Counting Reagent (Nacalai Tesque) in accordance with the manufacturer's instructions. Inhibition by the test compound was determined according to the following equation: […]
Hereafter, Inhibition (%) by 3.3 μM compound is shown.

[4] = system: promyelocytic leukemia cells HL60 (N-RasQ61L); assay: Cell growth inhibition, suspension cells HL60; settings: Homo sapiens, HL-60; 1 μM, 72 hours; read-out: HL-60 (NRasQ61L) % inhibition at 1 μM
Summary of the method: as §1

**Q.** How did the inhibition at 1 µM [1] turn out when `CC(=O)N1/C(=C\c2nc3cc(C(=O)N4CCOCC4)ccc3s2)C(=O)c2ccccc21` [Example 47, (Z)-1-acetyl-2-((5-(morpholine-4-carbonyl)benzo [d]thiazol-2-yl)-methylene)-indolin-3-one] was run?
**A.** Its inhibition at 1 µM is 61%.

**Q.** What about the inhibition at 1 µM [2] of the same molecule?
**A.** Its inhibition at 1 µM is 74%.

**Q.** What about the inhibition at 3.3 µM [3] of the same molecule?
**A.** Its inhibition at 3.3 µM is 92%.

**Q.** And the inhibition at 1 µM [4]?
**A.** Its inhibition at 1 µM is 89%.
